# Experimental data as given in ChEMBL document CHEMBL1128657, “Synthesis and in vitro biological evaluation of new triphenylethylene platinum (II) complexes” (Bioorg Med Chem Lett, 1995).
# Legend:
# MDA-MB-231 = assay: In vitro inhibition of estrogen receptor negative […] human mammary carcinoma cell proliferation; format: functional, cell-based
# MCF7 = assay: In vitro inhibition of estrogen receptor positive MCF-7 human mammary carcinoma cell proliferation; format: functional, cell-based
compound,measurement,setting,value
CC/C(=C(\c1ccccc1)c1ccc(OCCN(C)C)cc1)c1ccccc1 [TAMOXIFEN],IC50,"MDA-MB-231; Homo sapiens, MDA-MB-231",28 µM
same,IC50,"MCF7; Homo sapiens, MCF7",17 µM
COc1ccc(C(=C(CCCCCCCCCCCNCCN)c2ccccc2)c2ccc(OC)cc2)cc1,IC50,"MDA-MB-231; Homo sapiens, MDA-MB-231",2.3 µM
same,IC50,"MCF7; Homo sapiens, MCF7",14 µM
CISPLATIN,IC50,MDA-MB-231; mda-mb-231,3.4 µM
same,IC50,MCF7; mcf7,3 µM
